According to paper PMC3725995 (Bioorganic & medicinal chemistry letters, 2010):
Read-outs that look alike come from different tables or passages of the source.

Assays:
[1] = molecular target: system LAT1 transporter of the blood–brain barrier (Rattus norvegicus, UniProt Q63016); test: in situ rat brain perfusion: inhibition of L-[14C]-leucine uptake into rat brain; settings: in vivo
system LAT1 transporter = settings: cited from earlier work; for Ki: read-out: Ki for the system L transporter
[2] = cited from earlier work
[3] = cited from earlier work; remark: listed apart in the source
[4] = read-out: Km for system LAT1 transporter

Sequence of system LAT1 transporter of the blood–brain barrier (Q63016 whole entry, the tested form may be a part): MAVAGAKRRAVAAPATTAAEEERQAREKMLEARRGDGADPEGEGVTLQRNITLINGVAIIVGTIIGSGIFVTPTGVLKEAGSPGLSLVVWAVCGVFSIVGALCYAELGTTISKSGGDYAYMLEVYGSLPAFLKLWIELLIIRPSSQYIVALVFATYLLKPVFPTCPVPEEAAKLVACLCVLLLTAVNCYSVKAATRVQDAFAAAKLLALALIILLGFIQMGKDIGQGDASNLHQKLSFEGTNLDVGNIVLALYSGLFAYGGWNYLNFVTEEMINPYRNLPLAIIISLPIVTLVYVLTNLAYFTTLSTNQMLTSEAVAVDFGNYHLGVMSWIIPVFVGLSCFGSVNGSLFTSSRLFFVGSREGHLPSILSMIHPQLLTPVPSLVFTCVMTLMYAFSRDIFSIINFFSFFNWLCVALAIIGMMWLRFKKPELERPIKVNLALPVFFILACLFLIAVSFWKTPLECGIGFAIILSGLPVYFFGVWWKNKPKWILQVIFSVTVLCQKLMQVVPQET
Sequence of system LAT1 transporter of the blood–brain barrier (Q794F9 whole entry partner, the tested form may be a part): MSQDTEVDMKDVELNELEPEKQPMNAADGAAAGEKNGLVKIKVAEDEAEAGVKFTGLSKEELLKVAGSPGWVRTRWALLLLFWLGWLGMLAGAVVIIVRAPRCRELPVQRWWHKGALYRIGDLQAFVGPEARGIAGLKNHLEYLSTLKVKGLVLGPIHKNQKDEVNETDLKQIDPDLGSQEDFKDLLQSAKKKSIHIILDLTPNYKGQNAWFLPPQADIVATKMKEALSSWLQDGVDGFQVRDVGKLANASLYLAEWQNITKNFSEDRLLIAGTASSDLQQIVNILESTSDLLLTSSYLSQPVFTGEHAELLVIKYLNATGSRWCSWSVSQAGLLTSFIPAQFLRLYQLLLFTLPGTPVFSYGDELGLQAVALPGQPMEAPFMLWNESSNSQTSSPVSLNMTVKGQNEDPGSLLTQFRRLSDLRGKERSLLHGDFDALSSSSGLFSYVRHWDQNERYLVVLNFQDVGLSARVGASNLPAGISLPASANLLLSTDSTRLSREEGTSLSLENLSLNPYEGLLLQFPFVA

| SMILES | times lower affinity for the system LAT1 transporter than 5c [1] [times] | Ki (system LAT1 transporter) [µM] | Km (system LAT1 transporter; [4]) [µM] | also measured |
| --- | --- | --- | --- | --- |
| NC1(C(=O)O)CCc2c(cccc2N(CCCl)CCCl)C1 (centres unmarked) [5a] | 100 | ~25 |  |  |
| NC1(C(=O)O)CCc2ccccc2C1 (racemic) [compound 3, DL-2-amino-1,2,3,4,-tetrahydronaphthoic acid, reference compound] |  |  | 7.1 |  |
| NC1(C(=O)O)CC2CCC1C2 (centres unmarked) [compound 4, reference compound] |  |  |  | affinity for the system LAT1 transporter (system LAT1 transporter; in vivo): good affinity |
| N[C@@H](Cc1ccc(N(CCCl)CCCl)cc1)C(=O)O [compound 2, Melphalan, reference compound] |  |  |  | Km (system LAT1 transporter; read-out: Km for system LAT1, estimated): 90 to 150 µM |
| NC1(C(=O)O)CC2CC1c1cc(N(CCCl)CCCl)ccc12 (mixture of isomers) [compound 7, (±)-2-endo-amino-bis(2-chloroethyl)-7′-aminobenzobicyclo[2.2.1]heptane-2-exo-carboxylic acid] | 25 |  |  |  |
| NC1(C(=O)O)CCc2ccc(N(CCCl)CCCl)cc2C1 (centres unmarked) [5c] |  | ~0.2 | 0.19 | in vitro antitumor activity compared to melphalan [2]: enhanced; Vmax of uptake into brain by blood–brain barrier system LAT1 transporter (system LAT1 transporter): 0.26 nmol/min/g; myelosuppressive activity compared to melphalan [3]: reduced |
